This test deals with Bipolaris oryzae. Description: Antifungal activity against Helminthosporium oryzae at 1000 ppm. Format: functional.

On to `C[C@H]1[C@H](C)CC[C@]2(C)CC[C@]3(C(=O)O)C(=CC[C@@H]4[C@@]5(C)CC[C@H](O)C(C)(C)[C@@H]5CC[C@]43C)[C@H]12`, for which the Activity was less than 10%.

Values taken from ChEMBL document CHEMBL1151379, “Chemical Constituents of Hyptis suaveolens. Part I. Spectral and Biological Studies on a Triterpene Acid” (1981).
